Test results from US11655448B2, “Placenta-derived matrix and methods of preparing and use thereof” (LIFENET HEALTH, priority 2015, dated 2023).

How the values were obtained:
[1] = tested on: dorsal root ganglia (DRGs); test: Dorsal root ganglia attachment and growth on substrates; assay type: cell-based
Description: The ability for ectodermal cell attachment and growth on HuMATRIX was also assessed using dorsal root ganglia (DRGs). Near 100% attachment of DRGs was observed on HuMATRIX, Laminin, and decellularized placenta with urea extraction, but nearly no DRGs attached to culture plastic alone, with the cells stained for beta-III-tubulin and DAPI to assess the cell morphology.

MCF7 tumor cell = conditions: reported in the literature; cited from earlier work

Molecule	attachment of DRGs [1]	increase in MCF7 tumor cell proliferation (MCF7 tumor cell)
Laminin	~100%	
Placental lactogen: human chorionic sommatomammotropin (aka placental lactogen) found in HuMATRIX (protein, UniProt P0DML2 27-217, looked up) Chorionic somatomammotropin …: VQTVPLSRLFDHAMLQAHRAHQLAIDTYQEFEETYIPKDQKYSFLHDSQTSFCFSDSIPTPSNMEETQQKSNLELLRISLLLIESWLEPVRFLRSMFANNLVYDTSDSDDYHLLKDLEEGIQTLMGRLEDGSRRTGQILKQTYSKFDTNSHNHDALLKNYGLLYCFRKDMDKVETFLRMVQCRSVEGSCGF		4.4 fold
